From patent US11319336B2, “Ship inhibitors and uses thereof” (The Research Foundation For The State University Of New York, priority 2010, dated 2022)
“Also recorded” adds a separate entry of the source.

What was measured:
recombinant SHIP1 = target: T1, recombinant SHIP1 (Homo sapiens, UniProt Q92835); assay: Malachite Green phosphatase assay for SHIP1 activity against PI(3,4,5)P3 substrate; type: biochemical
T1 sequence (Q92835 1-1189): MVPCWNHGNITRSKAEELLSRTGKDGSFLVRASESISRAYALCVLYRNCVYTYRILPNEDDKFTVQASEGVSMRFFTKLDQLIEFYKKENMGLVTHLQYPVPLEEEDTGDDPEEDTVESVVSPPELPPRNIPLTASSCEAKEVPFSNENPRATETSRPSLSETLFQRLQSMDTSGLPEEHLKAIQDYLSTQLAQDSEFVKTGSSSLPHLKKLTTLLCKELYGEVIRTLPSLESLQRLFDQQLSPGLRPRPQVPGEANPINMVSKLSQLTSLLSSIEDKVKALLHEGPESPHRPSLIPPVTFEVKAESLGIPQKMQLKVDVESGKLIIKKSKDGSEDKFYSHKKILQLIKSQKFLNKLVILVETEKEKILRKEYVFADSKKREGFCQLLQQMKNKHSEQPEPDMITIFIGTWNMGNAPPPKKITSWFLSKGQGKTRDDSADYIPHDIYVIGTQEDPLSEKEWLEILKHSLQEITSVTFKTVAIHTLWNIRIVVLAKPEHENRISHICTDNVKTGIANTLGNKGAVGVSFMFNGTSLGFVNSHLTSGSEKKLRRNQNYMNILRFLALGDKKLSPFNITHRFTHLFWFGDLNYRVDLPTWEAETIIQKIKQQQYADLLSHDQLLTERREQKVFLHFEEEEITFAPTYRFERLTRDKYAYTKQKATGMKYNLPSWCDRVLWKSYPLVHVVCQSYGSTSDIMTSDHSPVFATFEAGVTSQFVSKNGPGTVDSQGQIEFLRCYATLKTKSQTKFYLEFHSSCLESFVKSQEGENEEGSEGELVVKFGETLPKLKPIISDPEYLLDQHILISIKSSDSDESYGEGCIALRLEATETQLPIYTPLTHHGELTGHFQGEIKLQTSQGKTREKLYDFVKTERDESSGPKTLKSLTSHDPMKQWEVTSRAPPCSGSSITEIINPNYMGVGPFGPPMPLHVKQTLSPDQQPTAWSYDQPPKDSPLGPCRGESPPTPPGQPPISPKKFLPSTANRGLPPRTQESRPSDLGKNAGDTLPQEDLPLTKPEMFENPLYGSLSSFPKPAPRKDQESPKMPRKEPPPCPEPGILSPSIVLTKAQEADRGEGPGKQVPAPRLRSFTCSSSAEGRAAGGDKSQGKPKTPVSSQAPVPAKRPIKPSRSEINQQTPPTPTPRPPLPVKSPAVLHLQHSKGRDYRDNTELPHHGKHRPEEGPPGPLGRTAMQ
Procedure: Absorbance is recorded at 620 nm, smaller numbers indicate a lack of green color and inhibition of the phosphatase.
(§1) [Noto bene: DRV-IV-26=3A5AS]

MIR cell numbers = assay: MIR cell induction in treated mice; type: in vivo; details: FIG. 6C, D
Procedure: as §1
The solubility of 3AC was assessed by calculating the distribution coefficient (CLogD). This calculation estimates the CLogD for 3AC at 7.17 indicating the molecule is very lipophilic. Thus, we have begun to develop novel 3AC analogs with increased aqueous solubility. One of these compounds, 3A5AS, has a CLogD of 3.33. Lipinski's rules (a common measure of small molecule pharmacokinetics) recommend a ClogD of <5 for in vivo applications.

SMILES: C[C@@]12CCC[C@H]1[C@@H]1CC[C@H]3C[C@H](N)CC[C@]3(C)[C@H]1CC2 [Example 3A5AS, 3α-amino-5α-androstane]
- Inhibition of recombinant SHIP1 activity in vitro, compared with 3AC (recombinant SHIP1; Malachite Green assay, PI(3,4,5)P3 substrate, FIG. 5B / FIG. 6A): equal inhibitory activity; also recorded: equally potent
- Concentration inducing a comparable MIR cell increase in vivo (MIR cell numbers): 15 µM
- Potency at inducing MIR cell numbers in vivo, compared with 3AC (MIR cell numbers): more potent

SMILES: CC(C)CCC[C@@H](C)[C@H]1CC[C@H]2[C@@H]3CCC4C[C@H](N)CC[C@]4(C)[C@H]3CC[C@]12C (some centres unmarked) [Example 3AC, reference compound]
- Concentration inducing a comparable MIR cell increase in vivo (MIR cell numbers): 60 µM

SMILES: CCN [ethylamine]
- SHIP1 inhibition by lack of green color (recombinant SHIP1; SHIP1 malachite phosphatase assay, FIG. 1, visual readout): poor inhibitor
